Measured values published in patent US4404218A, “Antibiotic SF-2103A substance and process for production thereof” (Meiji Seika Kaisha Ltd., priority 1980, dated 1983).
Structures can show the parent of a compound that is named as a salt.

Tests used:
Proteus vulgaris M-8243 = assay: synergistic effects with β-lactam antibiotics, paper disk inhibition zone
Proteus rettgeri GN 624 = assay: as above
[1] = test system: Citrobacter freundii GN 346; assay: as above
[2] = test system: Staphylococcus aureus 209P; assay: antibacterial activity, agar dilution method; type: cell-based; conditions: Heart Infusion Agar, read-out: Minimum Inhibitory Concentration
[3] = test system: Staphylococcus aureus Smith; assay: antibacterial activity, agar dilution method; type: cell-based; conditions: Heart Infusion Agar, read-out: Minimum Inhibitory Concentration
[4] = test system: Bacillus subtilis ATCC 6633; assay: antibacterial activity, agar dilution method; type: cell-based; conditions: ATCC6633, Heart Infusion Agar, read-out: Minimum Inhibitory Concentration
Escherichia coli No. 29 = assay: antibacterial activity, agar dilution method; type: cell-based; conditions: Heart Infusion Agar, read-out: Minimum Inhibitory Concentration
Excerpt: In this determination, Heart Infusion Agar (produced by Eiken Chemical Co., Ltd.) was used as the medium.

[5] = test system: Escherichia coli NIHJ JC-2; assay: antibacterial activity, agar dilution method; type: cell-based; conditions: NIHJJC2, Heart Infusion Agar, read-out: Minimum Inhibitory Concentration
[6] = test system: Klebsiella pneumoniae PCI 602; assay: antibacterial activity, agar dilution method; type: cell-based; conditions: PCI602, Heart Infusion Agar, read-out: Minimum Inhibitory Concentration
Proteus mirabilis GN 310 = assay: antibacterial activity, agar dilution method; type: cell-based; conditions: GN310, Heart Infusion Agar, read-out: Minimum Inhibitory Concentration
[7] = test system: Proteus vulgaris GN 76/C-1; assay: antibacterial activity, agar dilution method; type: cell-based; conditions: GN76, Heart Infusion Agar, read-out: Minimum Inhibitory Concentration
Proteus morganii Kono = assay: antibacterial activity, agar dilution method; type: cell-based; conditions: Morganella morganii, Heart Infusion Agar, read-out: Minimum Inhibitory Concentration
[8] = test system: Shigella dysenteriae Shigae; assay: microbe, parasite or virus in culture; type: cell-based; conditions: read-out: Minimum Inhibitory Concentration
[9] = test system: Citrobacter freundii GN 346; assay: antibacterial activity, agar dilution method; type: cell-based; conditions: GN346, Heart Infusion Agar, read-out: Minimum Inhibitory Concentration
[10] = test system: Serratia marcescens No. 1; assay: antibacterial activity, agar dilution method; type: cell-based; conditions: Heart Infusion Agar, read-out: Minimum Inhibitory Concentration
[11] = test system: Pseudomonas aeruginosa E-2; assay: antibacterial activity, agar dilution method; type: cell-based; conditions: E2, Heart Infusion Agar, read-out: Minimum Inhibitory Concentration
toxicity (LD50) = conditions: in vivo, mice or rat
Experimental: […]. LD50 values by oral administration, intramuscular injection and intravenous injection were all higher than 2,000 mg/kg.

solubility = type: physicochemical
Penicillinase = assay: β-lactamase inhibitory activity, modified Sargent's method; type: biochemical; conditions: at 10 ^.parallel.g/ml; substrate Penicilline G Potassium Salt
Excerpt: The Sargent's method was partly modified as follows
Reagent A: Enzyme solution properly diluted with 0.1 M phosphate buffer (pH 7.0) as to show 0.6 optical density of consumption of iodine at 490 nm when measured under the undermentioned conditions.
Reagent B: 1.3% Penicillin G potassium salt aqueous solution for penicillinase assay. 1.3% Cefalotin sodium salt aqueous solution for cephalosporinase assay (β-lactamase of Proteus vulgaris M-8243 or Citrobacter freundii GN 346).
Reagent C: 0.1 M phosphate buffer (pH 7.0)
Reagent D: Iodine acetate buffer solution which is prepared by adding 5 ml of stock iodine solution* to 95 ml of pH 4.0 acetate buffer (80 g of anhydrous sodium acetate adjusted to pH 4.0 with acetic acid and made up to 2 liters with distilled water).
A reaction mixture consisted of 0.5 ml of Reagent B and 2 ml of Reagent C is pre-incubated for 5 min at 30° C., and 0.5 ml of Reagent A is added to it and kept for 30 min at 30° C. At the end of reaction, 5 ml of Reagent D is added with rapid mixing and kept for 10 min at 30° C., then the optical density at 490 nm is measured.
As the blank test, an incubation mixture containing 0.5 ml of Reagent B and 2 ml of Reagent C is kept at 30° C. for 30 min, after that 5 ml of Reagent D and 0.5 ml of Reagent A are added to it. Then the optical density is measured in the same way. […]

[12] = biological target: T1, β-lactamase of Citrobacter freundii GN 346 (Citrobacter freundii, UniProt P05193); assay: as above; type: biochemical; conditions: read-out: 50% Inhibitory Concentration (I50) (converted)
T1 construct: cefalotin substrate
T1 sequence (P05193 21-381): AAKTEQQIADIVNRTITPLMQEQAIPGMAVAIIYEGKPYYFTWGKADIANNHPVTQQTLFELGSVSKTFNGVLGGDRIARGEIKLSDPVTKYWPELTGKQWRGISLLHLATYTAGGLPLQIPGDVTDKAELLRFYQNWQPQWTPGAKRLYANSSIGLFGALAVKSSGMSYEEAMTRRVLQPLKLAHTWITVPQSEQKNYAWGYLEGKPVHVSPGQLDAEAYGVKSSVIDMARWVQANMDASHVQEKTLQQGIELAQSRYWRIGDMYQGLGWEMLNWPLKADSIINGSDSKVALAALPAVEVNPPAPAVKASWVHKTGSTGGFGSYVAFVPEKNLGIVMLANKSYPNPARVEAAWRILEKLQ

stability = type: physicochemical
Excerpt: Furthermore, it is difficult to isolate the SF-2103A substance in a free acid form because it is, as described above, very unstable in an acidic state. The SF-2103A substance is therefore obtained as a salt thereof in a pale yellow or white amorphous powder form by freeze-drying a neutral aqueous solution thereof. The purity of the SF-2103A substance obtained varies depending on the potency of the culture broth.

Escherichia coli GN206 = assay: mouse protection test, Experiment I; conditions: observed 7 days, groups of five
[13] = β-lactam alone on 8 mm disk (Ampicillin 10 μg, Carbenicillin 2 μg, Cefalotin 2 μg, Cefaloridine 5 μg), 37° C., 16 hours
[14] = SF-2103A alone, 1 μg per disk, listed as SF-2103A

Structure (SMILES): CC1(C)S[C@@H]2[C@H](NC(=O)[C@H](N)c3ccccc3)C(=O)N2[C@H]1C(=O)O [Ampicillin]
- Diameter of Inhibition Zone (Proteus vulgaris M-8243; [13]): 0 mm
- Diameter of Inhibition Zone (Proteus rettgeri GN 624; [13]): 0 mm
- Diameter of Inhibition Zone [1, 13]: 0 mm

Structure (SMILES): CC1(C)S[C@@H]2[C@H](NC(=O)C(C(=O)O)c3ccccc3)C(=O)N2[C@H]1C(=O)O (stereo partly drawn) [Carbenicillin]
- Diameter of Inhibition Zone (Proteus vulgaris M-8243; [13]): 0 mm
- Diameter of Inhibition Zone (Proteus rettgeri GN 624; [13]): 0 mm
- Diameter of Inhibition Zone [1, 13]: 0 mm

Structure (SMILES): O=C(Cc1cccs1)N[C@@H]1C(=O)N2C(C(=O)[O-])=C(C[n+]3ccccc3)CS[C@H]12 [Cefaloridine]
- Diameter of Inhibition Zone (Proteus vulgaris M-8243; [13]): 0 mm
- Diameter of Inhibition Zone (Proteus rettgeri GN 624; [13]): 0 mm
- Diameter of Inhibition Zone [1, 13]: 0 mm

Structure (SMILES): CC(=O)OCC1=C(C(=O)O)N2C(=O)[C@@H](NC(=O)Cc3cccs3)[C@H]2SC1 [Cefalotin]
- Diameter of Inhibition Zone (Proteus vulgaris M-8243; [13]): 0 mm
- Diameter of Inhibition Zone (Proteus rettgeri GN 624; [13]): 0 mm
- Diameter of Inhibition Zone [1, 13]: 0 mm

Structure (SMILES): CC(OS(=O)(=O)O)C1C(=O)N2C(C(=O)O)=C(S(=O)(=O)O)CC12 (stereo not drawn) [SF-2103A substance sodium salt]
- MIC [2]: 25 µg/mL
- MIC [3]: 25 µg/mL
- MIC [4]: 50 µg/mL
- MIC (Escherichia coli No. 29): 3.13 µg/mL
- MIC [5]: 12.5 µg/mL
- MIC [6]: 50 µg/mL
- MIC (Proteus mirabilis GN 310): 50 µg/mL
- MIC [7]: 25 µg/mL
- MIC (Proteus morganii Kono): 25 µg/mL
- MIC [8]: 3.13 µg/mL
- MIC [9]: 6.25 µg/mL
- MIC [10]: 50 µg/mL
- MIC [11]: > 100 µg/mL
- LD50 (toxicity (LD50); im, intramuscular injection): > 2000 mg/kg
- LD50 (toxicity (LD50); intravenous injection): > 2000 mg/kg
- LD50 (toxicity (LD50); oral administration): > 2000 mg/kg
- Solubility (solubility; in benzene): insoluble
- Solubility (solubility; in chloroform): insoluble
- Solubility (solubility; in ethyl acetate): insoluble
- Solubility (solubility; in methanol): soluble
- Solubility (solubility; in water): Freely soluble

Structure (SMILES): CC(OS(=O)(=O)O)C1C(=O)N2C(C(=O)O)=C(S(=O)(=O)O)CC12 (stereo not drawn) [SF-2103A substance]
- Inhibitory Ratio (Penicillinase): 34.4%
- IC50 [12]: 504 nM
- stability (stability; acidic state (free acid form)): very unstable
- stability (stability; temperatures higher than room temperature, acidic or alkaline state): extremely unstable
- survival of infected mice (Escherichia coli GN206; 1 mg/mouse subcutaneously twice at one and two hours after intraperitoneal infection): four of the five mice survived
- survival of infected mice (Escherichia coli GN206; 2 mg/mouse subcutaneously once at one hour after intraperitoneal infection): two of the five mice survived
- Diameter of Inhibition Zone (Proteus vulgaris M-8243; SF-2103A alone, 1 μg per disk): does not show the inhibition zone
- Diameter of Inhibition Zone (Proteus vulgaris M-8243; [14]): 0 mm
- Diameter of Inhibition Zone (Proteus rettgeri GN 624; SF-2103A alone, 1 μg per disk): does not show the inhibition zone
- Diameter of Inhibition Zone (Proteus rettgeri GN 624; [14]): 0 mm
- Diameter of Inhibition Zone ([1]; SF-2103A alone, 1 μg per disk): does not show the inhibition zone
- Diameter of Inhibition Zone [1, 14]: 0 mm
